Measurements taken from patent US7138361B2, “Herbicidal heterocycles” (E. I. du Pont de Nemours and Company, priority 2000, dated 2006).

Assays:
Format in all cases: in vivo
[1] = system: Surinam grass (Brachiaria decumbens); assay: Test C postemergence
Text: (§1) Seeds of plant species selected from bermudagrass (Cynodon dactylon), Surinam grass (Brachiaria decumbens), cocklebur (Xanthium strumarium), corn (Zea mays), crabgrass (Digitaria sanguinalis), woolly cupgrass (Eriochloa villosa), giant foxtail (Setaria faberii), goosegrass (Eleusine indica), johnsongrass (Sorghum halepense), kochia (Kochia scoparia), lambsquarters (Chenopodium album), morningglory (Ipomoea hederacea), yellow nutsedge (Cyperus esculentus), pigweed (Amaranthus retroflexus), common ragweed (Ambrosia elatior), soybean (Glycine max) and velvetleaf (Abutilon theophrasti) were planted and treated preemergence with test chemicals formulated in a non-phytotoxic solvent mixture which included a surfactant.
(§2) At the same time, plants selected from these crop and weed species and also winter barley (Hordeum vulgare), blackgrass (Alopecurus myosuroides), canary grass (Phalaris minor), chickweed (Stellaria media), downy brome (Bromus tectorum), green foxtail (Setaria viridis), Italian ryegrass (Lolium multiflorum), wheat (Triticum aestivum), wild oat (Avena fatua) and windgrass (Apera spica-venti) were treated with postemergence applications of some of the test chemicals formulated in the same manner. Plants ranged in height from 2 to 18 cm (1- to 4-leaf stage) for postemergence treatments. Plant species in the flooded paddy test consisted of rice (Oryza saliva), smallflower flatsedge (Cyperus difformis), duck salad (Heteranthera limosa) and barnyardgrass (Echinochloa crus-galli) grown to the 2-leaf stage for testing. Treated plants and controls were maintained in a greenhouse for 12 to 14 days, after which time all species were compared to controls and visually evaluated. Plant response ratings, summarized in Table C, are based on a scale of 0 to 100 where 0 is no effect and 100 is complete control. A dash (-) response means no test result.

[2] = system: bermudagrass (Cynodon dactylon); assay: Test C postemergence
Text: as §1, §2

[3] = system: chickweed (Stellaria media); assay: Test C postemergence
Text: as §1, §2

[4] = system: cocklebur (Xanthium strumarium); assay: Test C postemergence
Text: as §1, §2

[5] = system: common ragweed (Ambrosia elatior); assay: Test C postemergence
Text: as §1, §2

corn (Zea mays) = assay: Test C postemergence
Text: as §1, §2

[6] = system: crabgrass (Digitaria sanguinalis); assay: Test C postemergence
Text: as §1, §2

[7] = system: giant foxtail (Setaria faberii); assay: Test C postemergence
Text: as §1, §2

[8] = system: johnsongrass (Sorghum halepense); assay: Test C postemergence
Text: as §1, §2

kochia (Kochia scoparia) = assay: Test C postemergence
Text: as §1, §2

[9] = system: morningglory (Ipomoea hederacea); assay: Test C postemergence
Text: as §1, §2

[10] = system: pigweed (Amaranthus retroflexus); assay: Test C postemergence
Text: as §1, §2

[11] = system: woolly cupgrass (Eriochloa villosa); assay: Test C postemergence
Text: as §1, §2

[12] = system: yellow nutsedge (Cyperus esculentus); assay: Test C postemergence
Text: as §1, §2

[13] = system: barnyardgrass (Echinochloa crus-galli); assay: Test C flooded paddy test; details: for Barnyardgrass plant response rating: Flooded Paddy, scale 0 to 100, 0 no effect, 100 complete control; for Plant response rating, Barnyardgrass: flooded paddy test, scale 0 to 100 (0 no effect, 100 complete control)
Procedure, shortened: (§3)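 Response on a 0-to-100 scale (no effect to complete control) was assessed by eye versus controls. Plants had reached 2 leaves when treated in flooded paddy conditions. The assessment took place after 12–14 days of greenhouse growth.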

[14] = system: duck salad (Heteranthera limosa); assay: Test C flooded paddy test; details: for Ducksalad plant response rating: Flooded Paddy, scale 0 to 100, 0 no effect, 100 complete control; for Plant response rating, Ducksalad: flooded paddy test, scale 0 to 100 (0 no effect, 100 complete control)
Procedure, shortened: as §3

rice (Oryza saliva) = assay: Test C flooded paddy test; details: for Rice plant response rating: Flooded Paddy, scale 0 to 100, 0 no effect, 100 complete control; for Plant response rating, Rice: flooded paddy test, scale 0 to 100 (0 no effect, 100 complete control)
Procedure, shortened: as §3

Sunflower = assay: Test C preemergence; details: Rate 31 g/ha, scale 0 to 100
[15] = Rate 62 g/ha, scale 0 to 100, 0 no effect, 100 complete control
[16] = Rate 125 g/ha, scale 0 to 100, 0 no effect, 100 complete control
[17] = Rate 250 g/ha, scale 0 to 100 (0 no effect, 100 complete control)

CC(C)(C)c1ccn(C2SCN(c3cccc(OC(F)F)c3)C2=O)n1 (stereo not shown) [Compound 36]
Plant response rating, Surinam grass ([1]; Rate 31 g/ha, scale 0 to 100): 0 | Plant response rating, Surinam grass [1, 15]: 0 | Plant response rating, Surinam grass [1, 16]: 0 | Plant response rating, Surinam grass [1, 17]: 0 | Plant response rating, Bermudagrass ([2]; Rate 31 g/ha, scale 0 to 100): 0 | Plant response rating, Bermudagrass [2, 15]: 0 | Plant response rating, Bermudagrass [2, 16]: 0 | Plant response rating, Bermudagrass [2, 17]: 70 | Plant response rating, Chickweed ([3]; Rate 31 g/ha, scale 0 to 100): 0 | Plant response rating, Chickweed [3, 15]: 0 | Plant response rating, Chickweed [3, 16]: 0 | Plant response rating, Chickweed [3, 17]: 50 | Plant response rating, Cocklebur ([4]; Rate 31 g/ha, scale 0 to 100): 0 | Plant response rating, Cocklebur [4, 16]: 0 | Plant response rating, Cocklebur [4, 17]: 0 | Plant response rating, Ragweed, Common ([5]; Rate 31 g/ha, scale 0 to 100): 0 | Plant response rating, Ragweed, Common [5, 16]: 0 | Plant response rating, Ragweed, Common [5, 17]: 30 | Plant response rating, Corn (corn (Zea mays); Rate 31 g/ha, scale 0 to 100): 0 | Plant response rating, Corn (corn (Zea mays); [16]): 0 | Plant response rating, Corn (corn (Zea mays); [17]): 20 | Plant response rating, Crabgrass ([6]; Rate 31 g/ha, scale 0 to 100): 0 | Plant response rating, Crabgrass [6, 16]: 0 | Plant response rating, Crabgrass [6, 17]: 30 | Plant response rating, Foxtail, Giant ([7]; Rate 31 g/ha, scale 0 to 100): 0 | Plant response rating, Foxtail, Giant [7, 16]: 0 | Plant response rating, Foxtail, Giant [7, 17]: 20 | Plant response rating, Johnsongrass ([8]; Rate 31 g/ha, scale 0 to 100): 0 | Plant response rating, Johnsongrass [8, 16]: 0 | Plant response rating, Johnsongrass [8, 17]: 0 | Plant response rating, Kochia (kochia (Kochia scoparia); Rate 31 g/ha, scale 0 to 100): 20 | Plant response rating, Kochia (kochia (Kochia scoparia); [16]): 70 | Plant response rating, Kochia (kochia (Kochia scoparia); [17]): 80 | Plant response rating, Morningglory ([9]; Rate 31 g/ha, scale 0 to 100): 0 | Plant response rating, Morningglory [9, 16]: 0 | Plant response rating, Morningglory [9, 17]: 20 | Plant response rating, Pigweed ([10]; Rate 31 g/ha, scale 0 to 100): 30 | Plant response rating, Pigweed [10, 16]: 60 | Plant response rating, Pigweed [10, 17]: 60 | Plant response rating, Cupgrass, Woolly ([11]; Rate 31 g/ha, scale 0 to 100): 0 | Plant response rating, Cupgrass, Woolly [11, 16]: 0 | Plant response rating, Cupgrass, Woolly [11, 17]: 0 | Plant response rating, Nutsedge ([12]; Rate 31 g/ha, scale 0 to 100): 0 | Plant response rating, Nutsedge [12, 16]: 0 | Plant response rating, Nutsedge [12, 17]: 30 | Barnyardgrass plant response rating ([13]; Rate 250 g/ha): 100 | Barnyardgrass plant response rating ([13]; Rate 500 g/ha): 100 | Plant response rating, Barnyardgrass ([13]; Rate 62 g/ha): 100 | Plant response rating, Barnyardgrass ([13]; Rate 125 g/ha): 100 | Ducksalad plant response rating ([14]; Rate 250 g/ha): 100 | Ducksalad plant response rating ([14]; Rate 500 g/ha): 100 | Plant response rating, Ducksalad ([14]; Rate 62 g/ha): 80 | Plant response rating, Ducksalad ([14]; Rate 125 g/ha): 90 | Rice plant response rating (rice (Oryza saliva); Rate 250 g/ha): 90 | Rice plant response rating (rice (Oryza saliva); Rate 500 g/ha): 90 | Plant response rating, Rice (rice (Oryza saliva); Rate 62 g/ha): 30 | Plant response rating, Rice (rice (Oryza saliva); Rate 125 g/ha): 80 | Plant response rating, Sunflower (Sunflower): 0
